Assay results as given in patent publication US10500232B2, “Small molecule cellular reprogramming to generate neuronal cells” (The J. David Gladstone Institutes, a testamentary trust …, priority 2013, dated 2019).
Read-outs that look alike come from different tables or passages of the source.

Experiments:
[1] = target: mGlu4 (Homo sapiens, UniProt Q14833); conditions: cited from earlier work
[2] = test system: Tau-EGFP mouse embryonic fibroblasts transduced with Ascl1/Myt1l; experiment: High-throughput compound screening for Tau-EGFP expression and neuronal morphology; type: cell-based; conditions: individual compound plus doxycycline 7 days, analysed day 14; hits confirmed dose-dependently in larger well format
Procedure: Infected Tau-EGFP MEFs in 150-mm dishes were dissociated by trypsinization and plated to 384-well plates with 4×10^3 cells per well in 50 μl of N2B27 medium plus 2.0 μg ml^−1 doxycycline by using Multi-drop (Thermo Fisher). Fifty nanoliters of compounds from a collection of known drugs (˜3,000) were added to each well of infected cells by using BioMek (BD). After 3 days of compound treatment, […] N2B27 media were added to each well to keep the medium volume at 55-60 μl. The total period of compound treatment is 7 days. After that, medium was replaced with neuronal maturation medium for another 7 days. The cells were then fixed for immunostaining on Day 14. The high-throughput imaging was performed by using InCell 2000. Finally, the screening result was analyzed by InCell Workstation 2000.
To conduct the chemical screening, Tau-EGFP mouse embryonic fibroblasts were used that were transduced with an Ascl1/Myt1l coding region that was under control of tet operator. These cells were plated at 4,000 cells/well in 384-well plates containing chemically defined N2B27 media. After overnight incubation, the cells were treated for seven days with doxycycline to induce Ascl1/Myt1l expression and also contacted with individual compounds selected from a drug collection containing over 3000 compounds. The media was then replaced with compound-free standard neuronal media. Cells were fixed at day 14 then analyzed for Tau-EGFP expression and neuronal morphology by high content imaging (FIG. 4A and FIG. 3).

[3] = target: mGlu receptors; conditions: cited from earlier work
[4] = test system: HDAC activity in HeLa extracts; conditions: read-out: IC50 for inhibition of HDAC activity; cited from earlier work
[5] = test system: PDE4; conditions: read-out: IC50 against PDE4; cited from earlier work
[6] = target: histone acetyltransferase p300 (Homo sapiens, UniProt Q09472); conditions: simplified analog of CTPB; cited from earlier work
Sequence of histone acetyltransferase p300 (Q09472 whole entry, species assumed): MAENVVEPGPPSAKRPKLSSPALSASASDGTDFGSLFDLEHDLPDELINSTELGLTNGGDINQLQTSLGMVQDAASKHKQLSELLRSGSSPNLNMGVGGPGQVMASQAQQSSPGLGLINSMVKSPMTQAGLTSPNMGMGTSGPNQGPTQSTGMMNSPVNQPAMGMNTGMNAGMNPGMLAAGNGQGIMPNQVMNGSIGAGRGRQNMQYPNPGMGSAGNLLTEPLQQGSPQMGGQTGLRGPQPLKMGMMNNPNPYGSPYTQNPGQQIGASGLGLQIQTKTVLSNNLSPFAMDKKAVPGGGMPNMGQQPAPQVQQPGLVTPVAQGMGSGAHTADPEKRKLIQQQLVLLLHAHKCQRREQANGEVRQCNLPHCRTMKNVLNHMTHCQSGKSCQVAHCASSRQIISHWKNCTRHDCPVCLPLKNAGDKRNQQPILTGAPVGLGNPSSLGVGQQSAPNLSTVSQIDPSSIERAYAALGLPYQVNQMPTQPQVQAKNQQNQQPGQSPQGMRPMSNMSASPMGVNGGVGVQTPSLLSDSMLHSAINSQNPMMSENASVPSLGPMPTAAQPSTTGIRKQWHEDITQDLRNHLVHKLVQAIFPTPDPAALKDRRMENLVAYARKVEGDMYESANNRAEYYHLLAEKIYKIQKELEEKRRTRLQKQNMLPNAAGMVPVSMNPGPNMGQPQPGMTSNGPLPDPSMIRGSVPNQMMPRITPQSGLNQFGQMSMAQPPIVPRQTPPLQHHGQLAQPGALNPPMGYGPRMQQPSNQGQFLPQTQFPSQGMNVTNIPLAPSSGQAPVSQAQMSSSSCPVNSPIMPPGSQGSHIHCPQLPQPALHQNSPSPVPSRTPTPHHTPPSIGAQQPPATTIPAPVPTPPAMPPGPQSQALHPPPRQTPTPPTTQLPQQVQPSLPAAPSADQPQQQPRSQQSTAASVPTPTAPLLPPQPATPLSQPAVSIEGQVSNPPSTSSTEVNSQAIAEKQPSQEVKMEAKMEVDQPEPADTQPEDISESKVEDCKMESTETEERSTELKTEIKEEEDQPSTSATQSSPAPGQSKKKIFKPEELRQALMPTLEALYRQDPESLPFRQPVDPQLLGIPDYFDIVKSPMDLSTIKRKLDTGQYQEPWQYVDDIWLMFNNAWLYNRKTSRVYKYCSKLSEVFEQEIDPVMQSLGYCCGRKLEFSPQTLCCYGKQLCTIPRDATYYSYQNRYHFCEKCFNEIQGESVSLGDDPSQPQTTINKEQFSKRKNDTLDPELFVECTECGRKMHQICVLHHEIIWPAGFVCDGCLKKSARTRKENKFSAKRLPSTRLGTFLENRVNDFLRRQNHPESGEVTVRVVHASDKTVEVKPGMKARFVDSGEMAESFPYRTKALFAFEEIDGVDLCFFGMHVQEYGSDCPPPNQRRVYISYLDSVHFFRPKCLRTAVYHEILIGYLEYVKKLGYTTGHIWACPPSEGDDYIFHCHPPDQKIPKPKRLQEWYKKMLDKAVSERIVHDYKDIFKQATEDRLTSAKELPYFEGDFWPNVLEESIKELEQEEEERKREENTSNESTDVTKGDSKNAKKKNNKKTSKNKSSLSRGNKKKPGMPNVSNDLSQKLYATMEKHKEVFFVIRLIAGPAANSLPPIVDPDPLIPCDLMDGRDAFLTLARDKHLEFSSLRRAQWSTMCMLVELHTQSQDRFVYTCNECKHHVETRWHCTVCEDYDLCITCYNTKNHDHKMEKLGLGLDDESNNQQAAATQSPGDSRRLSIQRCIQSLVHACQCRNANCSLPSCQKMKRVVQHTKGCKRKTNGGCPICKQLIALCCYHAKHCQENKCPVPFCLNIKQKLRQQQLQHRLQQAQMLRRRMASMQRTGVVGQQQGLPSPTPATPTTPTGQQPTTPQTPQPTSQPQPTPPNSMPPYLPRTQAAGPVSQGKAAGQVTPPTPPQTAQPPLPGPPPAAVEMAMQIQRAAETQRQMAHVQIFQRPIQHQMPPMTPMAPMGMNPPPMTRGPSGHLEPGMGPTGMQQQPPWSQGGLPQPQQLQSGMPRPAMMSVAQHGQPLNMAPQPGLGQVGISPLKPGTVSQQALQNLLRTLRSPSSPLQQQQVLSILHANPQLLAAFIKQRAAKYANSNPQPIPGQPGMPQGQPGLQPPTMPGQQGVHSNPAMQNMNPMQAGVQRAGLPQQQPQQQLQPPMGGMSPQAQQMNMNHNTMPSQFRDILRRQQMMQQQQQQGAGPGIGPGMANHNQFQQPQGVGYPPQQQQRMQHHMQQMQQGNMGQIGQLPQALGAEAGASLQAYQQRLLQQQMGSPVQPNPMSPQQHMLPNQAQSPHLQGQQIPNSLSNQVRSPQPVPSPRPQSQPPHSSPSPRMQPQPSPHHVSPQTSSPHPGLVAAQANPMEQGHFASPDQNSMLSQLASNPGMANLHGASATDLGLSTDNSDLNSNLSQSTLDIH

[7] = test system: histone deacetylases (HDACs); conditions: read-out: IC50 (histone deacetylase), cited from earlier work
[8] = target: SAPK2/p38 (Homo sapiens, UniProt Q16539); conditions: inhibitor of CK1 and ALK5; cited from earlier work
Sequence of SAPK2/p38 (Q16539 whole entry): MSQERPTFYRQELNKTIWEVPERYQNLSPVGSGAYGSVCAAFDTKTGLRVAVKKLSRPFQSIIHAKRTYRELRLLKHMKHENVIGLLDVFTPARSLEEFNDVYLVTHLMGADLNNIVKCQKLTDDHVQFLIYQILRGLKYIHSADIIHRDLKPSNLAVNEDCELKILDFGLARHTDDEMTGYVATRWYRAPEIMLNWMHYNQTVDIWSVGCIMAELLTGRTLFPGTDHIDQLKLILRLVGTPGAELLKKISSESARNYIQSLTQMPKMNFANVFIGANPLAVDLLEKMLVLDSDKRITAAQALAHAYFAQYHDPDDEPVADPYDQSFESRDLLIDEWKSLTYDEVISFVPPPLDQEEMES

[9] = target: adenylate cyclase 1 (Homo sapiens, UniProt Q08828); conditions: cited from earlier work
Sequence of adenylate cyclase 1 (Q08828 whole entry): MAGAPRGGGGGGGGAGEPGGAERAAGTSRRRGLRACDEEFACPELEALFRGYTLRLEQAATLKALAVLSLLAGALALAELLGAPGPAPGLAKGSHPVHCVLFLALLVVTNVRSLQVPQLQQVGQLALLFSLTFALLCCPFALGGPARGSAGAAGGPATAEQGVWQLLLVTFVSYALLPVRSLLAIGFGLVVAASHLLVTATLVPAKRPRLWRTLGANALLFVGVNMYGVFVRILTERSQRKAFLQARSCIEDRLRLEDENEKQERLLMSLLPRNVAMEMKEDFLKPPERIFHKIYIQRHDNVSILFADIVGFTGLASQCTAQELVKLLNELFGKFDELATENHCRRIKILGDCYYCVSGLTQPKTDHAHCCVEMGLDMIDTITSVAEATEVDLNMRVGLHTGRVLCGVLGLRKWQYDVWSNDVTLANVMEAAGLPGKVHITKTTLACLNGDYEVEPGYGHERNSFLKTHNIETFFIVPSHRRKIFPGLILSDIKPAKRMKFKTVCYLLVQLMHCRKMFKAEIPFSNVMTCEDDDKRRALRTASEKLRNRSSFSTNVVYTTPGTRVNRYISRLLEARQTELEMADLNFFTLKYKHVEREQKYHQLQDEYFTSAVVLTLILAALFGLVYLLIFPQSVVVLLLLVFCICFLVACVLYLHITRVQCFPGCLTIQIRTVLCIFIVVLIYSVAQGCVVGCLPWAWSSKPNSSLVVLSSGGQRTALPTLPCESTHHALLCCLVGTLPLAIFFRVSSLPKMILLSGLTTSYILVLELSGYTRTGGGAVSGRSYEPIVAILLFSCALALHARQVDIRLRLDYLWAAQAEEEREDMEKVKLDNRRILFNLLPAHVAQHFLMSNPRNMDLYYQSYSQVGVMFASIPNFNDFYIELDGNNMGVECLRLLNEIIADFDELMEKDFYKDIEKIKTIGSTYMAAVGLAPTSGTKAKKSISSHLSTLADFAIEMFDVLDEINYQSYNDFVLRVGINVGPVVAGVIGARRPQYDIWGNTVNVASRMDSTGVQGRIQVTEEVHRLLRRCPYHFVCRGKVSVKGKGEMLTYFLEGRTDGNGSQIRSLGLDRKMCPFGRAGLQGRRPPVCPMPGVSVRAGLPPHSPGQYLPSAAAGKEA

[10] = target: rat Group II mGlu receptor; conditions: read-out: IC50 against rat Group II mGlu receptor; cited from earlier work
[11] = target: various mGlu receptors; conditions: Ki depends on which receptor is bound; cited from earlier work
[12] = test system: mGlu(2) receptors; conditions: rodent and human; cited from earlier work
[13] = test system: mGlu(3) receptors; conditions: rodent and human; cited from earlier work
[14] = test system: STRC2-Ascl1/Myt1l neuronal cells from MEFs; experiment: Patch clamp electrophysiology of STRC2-Ascl1/Myt1l induced neuronal cells; type: cell-based, mouse
[15] = test system: RFP-positive miR124-RFP/Brn2 human fibroblast-derived cells; experiment: Patch clamp electrophysiology of STRC2-treated miR124-RFP/Brn2 cells; type: cell-based

Sequence of mGlu4 (Q14833 33-912): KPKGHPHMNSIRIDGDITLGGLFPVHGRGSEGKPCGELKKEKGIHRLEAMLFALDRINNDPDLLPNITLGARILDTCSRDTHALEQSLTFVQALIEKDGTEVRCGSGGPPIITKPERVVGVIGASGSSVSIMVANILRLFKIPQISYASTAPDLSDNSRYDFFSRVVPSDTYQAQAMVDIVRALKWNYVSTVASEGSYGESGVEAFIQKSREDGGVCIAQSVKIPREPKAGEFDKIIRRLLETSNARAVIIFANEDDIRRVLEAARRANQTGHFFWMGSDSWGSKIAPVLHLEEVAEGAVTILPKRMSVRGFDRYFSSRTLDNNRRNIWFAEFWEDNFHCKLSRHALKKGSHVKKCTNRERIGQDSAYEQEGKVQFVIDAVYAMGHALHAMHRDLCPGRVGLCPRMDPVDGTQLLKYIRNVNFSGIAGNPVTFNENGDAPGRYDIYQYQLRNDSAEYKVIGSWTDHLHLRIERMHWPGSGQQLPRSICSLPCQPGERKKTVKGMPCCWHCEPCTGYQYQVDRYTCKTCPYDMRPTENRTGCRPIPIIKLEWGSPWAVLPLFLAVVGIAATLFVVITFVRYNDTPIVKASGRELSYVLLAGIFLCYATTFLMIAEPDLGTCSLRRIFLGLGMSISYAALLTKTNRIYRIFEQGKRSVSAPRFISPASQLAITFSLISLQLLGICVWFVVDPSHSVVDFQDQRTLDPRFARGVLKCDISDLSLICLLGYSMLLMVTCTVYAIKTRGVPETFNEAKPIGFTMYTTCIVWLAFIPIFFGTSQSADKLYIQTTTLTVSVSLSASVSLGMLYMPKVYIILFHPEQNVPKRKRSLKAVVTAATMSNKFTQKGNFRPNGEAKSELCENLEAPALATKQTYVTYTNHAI

O=C(Nc1cc(Cl)cc(Cl)c1)[C@H]1CCCC[C@H]1C(=O)O (relative stereo) [VU0155041, cis-2-[[(3,5-dichlorophenyl)amino]carbonyl]cyclohexanecarboxylic acid]
EC50 [1]: 1000 nM

N[C@@]1(C(=O)O)CC[C@@H](C(=O)O)C1 [ACPD, (1S,3R)-1-aminocyclopentane-1,3-dicarboxylic acid]
induction of Tau-EGFP expression and neuronal morphology (screen hit) [2]: induce Tau-EGFP expression and a neuronal morphology | EC50 [3]: 9000 to 40000 nM

Nc1ccccc1NC(=O)CCCCCCC(=O)Nc1ccccc1 [BML-210, N1-(2-aminophenyl)-N8-phenyl-octanediamide]
IC50 [4]: ~80000 nM

O=C(O)c1ccc(-c2ccc3cc(O)c(C45CC6CC(CC(C6)C4)C5)cc3c2)cc1 [CD1530, 4-(6-hydroxy-7-tricyclo[3.3.1.13,7]dec-1-yl-2-naphthalenyl)benzoic acid]
induction of Tau-EGFP expression and neuronal morphology (screen hit) [2]: induce Tau-EGFP expression and a neuronal morphology

COc1ccc([C@H](Cc2ccncc2)c2ccccc2)cc1OC1CCCC1 [CDP-840, 4-[(2R)-2-(3-cyclopentyloxy-4-methoxyphenyl)-2-phenylethyl]pyridine]
IC50 [5]: ~10000 nM

Cc1c[nH]c(-c2cnc(NCCNc3ccc(C#N)cn3)nc2-c2ccc(Cl)cc2Cl)n1 [CHIR99021, 6-(2-(4-(2,4-dichlorophenyl)-5-(4-methyl-1H-imidazol-2-yl)pyrimidin-2-ylamino)ethylamino)nicotinonitrile]
induction of Tau-EGFP expression and neuronal morphology (screen hit) [2]: induce Tau-EGFP expression and a neuronal morphology

CCOc1ccccc1C(=O)Nc1ccc(Cl)c(C(F)(F)F)c1 [CTB, N-(4-chloro-3-trifluoromethyl-phenyl)-2-ethoxybenzamide]
activity as p300 activator relative to CTPB [6]: comparable or higher activity

CCCCCCCCCCCCCCCc1cccc(OCC)c1C(=O)Nc1ccc(Cl)c(C(F)(F)F)c1 [CTPB, N-(4-chloro-3-trifluoromethyl-phenyl)-2-ethoxy-6-pentadecyl-benzamide]
induction of Tau-EGFP expression and neuronal morphology (screen hit) [2]: induce Tau-EGFP expression and a neuronal morphology

CC1(C)NC(=O)C(CCCCCC(=O)[C@H]2CO2)NC(=O)C2CCCN2C(=O)[C@@H](Cc2ccccc2)NC1=O (stereo partly drawn) [Chlamydocin, (3R)-3-benzyl-6,6-dimethyl-9-[6-[(2R)-oxiran-2-yl]-6-oxohexyl]-1,4,7,10-tetrazabicyclo[10.3.0]pentadecane-2,5,8,11-tetrone]
IC50 ([7]; isoform not stated): ~0.15 nM

Cc1cc2c3c(c1)C(c1ccccc1)=N[C@@H](NC(=O)c1ccncc1)C(=O)N3CC2 [Cl-1018, N-[(3R)-9-methyl-4-oxo-1-phenyl-3,4,6,7-tetrahydro[1,4]diazepino[6,7,1-hi]indol-3-yl]pyridine-4-carboxamide]
IC50 [5]: ~3000 nM

NC(=O)c1ccc(-c2nc(-c3ccc4c(c3)OCCO4)c(-c3ccccn3)[nH]2)cc1 [D 4476, 4-[4-(2,3-Dihydro-1,4-benzodioxin-6-yl)-5-(2-pyridinyl)-IH-imidazol-2-yl]benzamide]
selectivity over SAPK2/p38 [8]: greater than 20 fold

COc1ccc(C(=O)Nc2cc(Cl)cnc2Cl)c2cccnc12 [D-4418, N-(2,5-dichloropyridin-3-yl)-8-methoxyquinoline-5-carboxamide]
IC50 [5]: ~170 nM

C=C[C@@]1(C)CC(=O)[C@]2(O)[C@@]3(C)[C@@H](O)CCC(C)(C)[C@@H]3[C@H](O)[C@H](OC(C)=O)[C@@]2(C)O1 [Forskolin]
IC50 [9]: 40 to 150 nM

CCOC(=O)c1ccc(N(C)C2CSC(c3ccccc3)=N2)cc1 (stereo not shown) [KHS2, ethyl 4-(methyl(2-phenyl-4,5-dihydrothiazol-4-yl)amino)benzoate]
induction of Tau-EGFP expression and neuronal morphology (screen hit) [2]: induce Tau-EGFP expression and a neuronal morphology

N[C@@]1(C(=O)O)CC[C@H]2[C@H](C(=O)O)[C@H]21 [LY354740, 1S,2S,5R,6S-2-aminobicyclo[3.1.0]hexane-2,6-dicarboxylate]
IC50 [10]: ~254 nM

N[C@@]1(C(=O)O)COC2C1[C@H]2C(=O)O (stereo partly drawn) [LY379268, (4R,6R)-4-amino-2-oxabicyclo[3.1.0]hexane-4,6-dicarboxylic acid]
Ki [11]: 2.7 to 100000 nM

NC1(C(=O)O)CC(F)C2C(C(=O)O)C21 (stereo not shown) [LY459477, 2-amino-4-fluorobicyclo[3.1.0]hexane-2,6-dicarboxylic acid]
potency for mGlu(2) receptors [12]: 1 to 2 nM | potency for mGlu(3) receptors [13]: 1 to 2 nM

NC(=O)[C@@H]1CCCC[C@@H]1C(=O)Nc1ccc(Cl)c(Cl)c1 [Lu AF21934, (1S,2R)-N1-(3,4-dichlorophenyl)cyclohexane-1,2-dicarboxamide]
EC50 [1]: 500 nM

NC(=O)[C@H]1CCCC[C@H]1C(=O)Nc1ccc(Cl)c(Cl)c1 [Lu AF21935, (1R,2S)-N1-(3,4-dichlorophenyl)cyclohexane-1,2-dicarboxamide]
EC50 [1]: > 10000 nM

Nc1ccccc1NC(=O)c1ccc(CNc2nccc(-c3cccnc3)n2)cc1 [MGCD0103, N-(2-aminophenyl)-4-[[(4-pyridin-3-ylpyrimidin-2-yl)amino]methyl]benzamide]
IC50 ([7]; isoform not stated): ~100 nM

Nc1ccccc1NC(=O)c1ccc(CNC(=O)OCc2cccnc2)cc1 [MS-27-275, pyridin-3-ylmethyl-N-[[4-[(2-aminophenyl)carbamoyl]phenyl]methyl]carbamate]
IC50 [7]: 100 to 1000 nM

NS(=O)(=O)c1cccc2c1c([N+](=O)[O-])cc1nc(O)c(O)nc12 [NBQX, 2,3-dihydroxy-6-nitro-7-sulfamoylbenzo quinoxaline]
effect on spontaneous excitatory postsynaptic current (sEPSC) ([14]; AMPA receptor antagonist, 10 μM): blocked

NC(=O)c1ccc(-c2nc(-c3ccc4c(c3)OCO4)c(-c3ccccn3)[nH]2)cc1 [SB 431542, 4-[4-(1,3-benzodioxol-5-yl)-5-(2-pyridinyl)-1H-imidazol-2-yl]benzamide]
induction of Tau-EGFP expression and neuronal morphology (screen hit) [2]: induce Tau-EGFP expression and a neuronal morphology

COc1ccc(C(=O)Nc2c(Cl)c[n+]([O-])cc2Cl)c2ccc(C(F)(F)F)nc12 [Sch-351591]
IC50 [5]: 150 nM

Cc1cc(C)cc(C(=O)OC2CC3CCC(C2)N3C)c1 (stereo not shown) [TDMB, Tropanyl-3,5-dimethylbenzoate]
induction of Tau-EGFP expression and neuronal morphology (screen hit) [2]: induce Tau-EGFP expression and a neuronal morphology

NC1=N[C@H](O)[C@H]2[C@H]3O[C@]4(O)O[C@@H]([C@@H](O)[C@@]2(N1)[C@@H]4O)[C@]3(O)CO [TTX, tetrodotoxin]
effect on trains of action potentials [15]: abolished

CC(/C=C/C(=O)NO)=C\[C@@H](C)C(=O)c1ccc(N(C)C)cc1 [Trichostatin A, (R,2E,4E)-6-(4-(dimethylamino)benzoyl)-N-hydroxy-4-methylhepta-2,4-dienamide]
induction of Tau-EGFP expression and neuronal morphology (screen hit) [2]: induce Tau-EGFP expression and a neuronal morphology | IC50 [7]: ~1.8 nM

C[C@@H](N)[C@H]1CC[C@H](C(=O)Nc2ccncc2)CC1 [Y27632, 4-[(1R)-1-aminoethyl]-N-pyridin-4-ylcyclohexane-1-carboxamide]
induction of Tau-EGFP expression and neuronal morphology (screen hit) [2]: induce Tau-EGFP expression and a neuronal morphology

COc1ccc(C2(C#N)CCC(C(=O)O)CC2)cc1OC1CCCC1 (stereo not shown) [ariflo, 4-cyano-4-(3-cyclopentyloxy-4-methoxyphenyl)cyclohexane-1-carboxylic acid]
IC50 [5]: ~150 nM

O=C(Nc1c(Cl)cncc1Cl)c1ccc(OC(F)F)c(OCC2CC2)c1 [roflumilast, 3-(cyclopropylmethoxy)-N-(3,5-dichloropyridin-4-yl)-4-(difluoromethoxy)benzamide]
IC50 [5]: 0.6 nM

COc1ccc(C2CNC(=O)C2)cc1OC1CCCC1 (stereo not shown) [rolipram, 4-(3-cyclopentyloxy-4-methoxyphenyl)pyrrolidin-2-one]
induction of Tau-EGFP expression and neuronal morphology (screen hit) [2]: induce Tau-EGFP expression and a neuronal morphology

CCc1nn(C2CCCC2)c2c1CCn1c(-c3cccs3)nnc1-2 [tofimilast]
IC50 [5]: ~13 nM

(2S,3S,4R,5R)-3,4-dihydroxy-5-[6-[(3-iodophenyl)methylamino]purin-9-yl]-N-ethyloxolane-2-carboxamide [IB-MECA]
induction of Tau-EGFP expression and neuronal morphology (screen hit) [2]: induce Tau-EGFP expression and a neuronal morphology

picrotoxin
effect on inhibitory postsynaptic currents (sIPSCs) ([14]; GABAA receptor antagonist, 50 μM): blocked
